The subject of series [1] is gametocytes. The note with it: cited from earlier work.
Series [2] relates to gametocytes. Also noted: method as in PMID 17242150. The settings on record: cited from earlier work.
The test system of series [3] is P. falciparum asexual forms (3D7A). The series can be described thus: In vitro antiplasmodial activity on asexual stages (uptake of radiolabeled nucleic acid precursor), 3D7A. It is filed as cell-based, Plasmodium falciparum. The settings on record: read-out: IC50 Activity against asexual forms (3D7A). The method, then:
(§1) IC50 values were measured as previously reported but all of the tests were done with serum-free cultures (using AlbuMAX II)

Series [4] concerns P. falciparum asexual forms (3D7HT-GFP). The series can be described thus: In vitro antiplasmodial activity on asexual stages (uptake of radiolabeled nucleic acid precursor), 3D7HT-GFP. It is filed as cell-based, Plasmodium falciparum. The settings on record: read-out: IC50 Activity against asexual forms (3D7HT-GFP). The method, then:
as §1

Series [5] has as its system P. falciparum mature gametocytes. Briefly: Microscopic enumeration of gametocytes on Giemsa-stained smears. The settings on record: read-out: IC50 gametocytes Microscopy examination. Type of series: cell-based, Plasmodium falciparum. The method, then:
100 µl of the culture (day 15, HT 6%) were plated in each well with the appropriate dilution of drug. 48 h after, 10 µl of each well was used to prepare a thin blood film and stain it with Giemsa. The number of gametocytes per 10,000–15,000 RBCs were counted and compared to the control (no drug, 0.5% DMSO).

Series [6] in a line: Cytotoxicity, resazurin-based reductase assay. The settings on record: human, HepG2, 48 h exposure, resazurin, mean ± SD, 3–6 independent experiments. Type of series: cell-based, human. The protocol:
(§2) Cells were grown and maintained in EMEM (Sigma-Aldrich) supplemented with 2 mM L-glutamine (Sigma-Aldrich) and 10% fetal calf serum (Perbio). […] For cytotoxicity experiments, cells were seeded onto 96-well clear bottom black plates coated with type I collagen (Biocoat, Becton Dickinson) at a cell density of 10000 cells/well.
(§3) The culture medium was as described above, but supplemented with 5% fetal calf serum. Following the 48 h exposure period, a 0.004% resazurin solution was prepared by adding 60 mL of Dulbecco's PBS to each resazurin tablet (VWR International). The tablet was allowed to dissolve by placing the container in a bath maintained at 37°C, protected from light, for approximately 30 minutes. Medium was removed and 200 µL of fresh culture medium and 50 µL of resazurin solution were added to each well. Plates were incubated for a further 1 ½ hours. Cytotoxicity is indicated by decreased reduction of resazurin to its fluorescent product resorufin. The fluorescence was stabilized at room temperature for 15 minutes protected from light. […] Percentages of inhibition were calculated relative to the control wells.
A general note: Resazurin is reduced to fluorescent resorufin, in cell work by metabolically active cells.

In series [7] the test system is P. falciparum stage IV–V gametocytes (3D7HT-GFP strain). Briefly: microbe, parasite or virus in culture. It is filed as cell-based, Plasmodium falciparum. The method, then:
Once purified, gametocytes were counted using a Neubauer chamber. Gametocytes (5×10^4 gametocytes per well) were transferred to a 96-well plate in a final volume of 100 µL, and dilutions of each drug were added (final DMSO concentration 0.5%). Plates were incubated (at 37°C in a 5% CO2 humidified incubator) for 48 h. The ATP level of each well was determined using the BacTiter-Glo™ reagent (Promega) according to manufacturer's recommendations. The BacTiter-Glo™ assay generates a “glow-type” luminescent signal produced by the luciferase reaction, which consists of mono-oxygenation of luciferin catalyzed by luciferase in the presence of Mg2+, ATP, and molecular oxygen.

The test system of the next series is HepG2 cells. The series can be described thus: Cytotoxicity, resazurin-based reductase assay. Type of series: cell-based, human. The protocol: as §2, §3
The test system of series [8] is gametocytes. Also noted: method as in PMID 21316401. The note with it: at 1 µM; cited from earlier work.
The next series deals with late gametocytes. Also noted: method as in PMID 20149239. The settings on record: flow cytometry assay; cited from earlier work. In general terms: A flow cytometer gives signals particle by particle.
Where [9] appears, read: Plasmodium falciparum, mean ± SD, 3–6 independent experiments, serum-free (AlbuMAX II).
[10] abbreviates: Plasmodium falciparum, mature gametocytes, 48 h incubation, Giemsa smear counting.
Setting [11] is: Plasmodium falciparum, 48 h, read-out: IC50 Activity against mature gametocytes IV–V, ATP bioluminescence, 48 h, 3D7HT-GFP, mean ± SD, 3–6 independent experiments.
Setting [12] is: Plasmodium falciparum, 48 h, read-out: IC50 gametocytes ATP method, mature gametocytes, 48 h drug exposure (Table 1).

Each structure is given as a SMILES string. In brackets after ≈: the same amount, converted by molar mass. Where two headings read alike, the source gives them in different places.

One may read the IC50 as the point on the concentration scale where inhibition reaches its midpoint. `C[C@H]1[C@H](OC(=O)CCC(=O)O)O[C@@H]2O[C@@]3(C)CC[C@H]4[C@H](C)CC[C@@H]1[C@@]24OO3` [Artesunate]: in the series on gametocytes [1], the IC50 on gametocytes was 0.1 ng/mL (≈ 0.26 nM). Also, the IC50 in the series with gametocytes [2] was 108 nM; in [3] (setting [9]) it was 37 ± 25 nM; in [4] (Plasmodium falciparum) it was 54 ± 30 nM; in [5] (setting [10]), 2260 nM; in series [7] (setting [11]), 10800 ± 3700 nM; in [7] (setting [12]), 10800 nM. In addition, the IC50 at 48 h in [6] (HepG2 cells) is > 50000 nM.

As to `O=C1C(O)=C([C@H]2CC[C@H](c3ccc(Cl)cc3)CC2)C(=O)c2ccccc21` [Atovaquone], the values for the IC50 in series [3] (setting [9]), in [4] (Plasmodium falciparum) and in [7] (setting [11]) were 0.7 ± 0.4 nM, 1.8 ± 0.2 nM and 16100 ± 2120 nM, respectively. For the same compound, the IC50 at 48 h in [6] (HepG2 cells) is > 40000 nM. For the same compound, the “cytotoxic effects (in words)” value in the series on HepG2 cells (at the maximum solubility in culture media) is reported as “No cytotoxic effects were detected”.

As for `CC[C@H]1OC(=O)[C@H](C)[C@@H](O[C@H]2C[C@@](C)(OC)[C@@H](O)[C@H](C)O2)[C@H](C)[C@@H](O[C@@H]2O[C@H](C)C[C@H](N(C)C)[C@H]2O)[C@](C)(O)C[C@@H](C)CN(C)[C@H](C)[C@@H](O)[C@]1(C)O` [Azythromycin], the IC50 in series [3] (Plasmodium falciparum) was > 10000 nM; in series [4] (Plasmodium falciparum), > 10000 nM; in series [7] (setting [11]) it was 28400 ± 640 nM. In addition, the IC50 at 48 h in [6] (HepG2 cells) was > 50000 nM.

For `CCN(CC)CCCC(C)Nc1ccnc2cc(Cl)ccc12` (stereo not drawn) [Chloroquine], the IC50 in [3] (Plasmodium falciparum) is 6 ± 0.2 nM; in series [4] (Plasmodium falciparum) it was 7 ± 2 nM; in series [5] (Plasmodium falciparum, 48 h), 28400 nM; in series [7] (setting [11]) it was 23500 ± 2660 nM; in [7] (setting [12]) it was 23500 nM.

On to `C[C@@H]1C[C@@H]([C@H](O)CC2CC(=O)NC(=O)C2)C(=O)[C@@H](C)C1` [Cycloheximide], for which the IC50 in series [3] (Plasmodium falciparum) worked out at 198 ± 1.7 nM; in series [4] (Plasmodium falciparum) it was 194 ± 7.7 nM; in series [7] (Plasmodium falciparum, 48 h, read-out: IC50 Activity against mature gametocytes IV–V), 6230 ± 2460 nM. The IC50 at 48 h in series [6] stood at 2950 ± 350 nM.

As to `C[C@H]1[C@@H](O)O[C@@H]2O[C@@]3(C)CC[C@H]4[C@H](C)CC[C@@H]1[C@@]24OO3` [Dihydroartemisinin], the IC50 in series [3] (setting [9]) stood at 2.8 ± 0.7 nM; in [4] (Plasmodium falciparum), 13 ± 3 nM; in series [5] (setting [10]), 2470 nM; in series [7] (setting [11]) it was 3560 ± 950 nM; in series [7] (setting [12]), 3560 nM. Besides, in the series with gametocytes [8], the inhibition of gametocytes is recorded as 70.4%. The IC50 at 48 h in series [6] (HepG2 cells) is > 50000 nM.

As for `CC[C@H](C)[C@H](NC(=O)[C@H]([C@@H](C)CC)N(C)C(C)=O)C(=O)N[C@H](C(=O)N[C@@H](CC(C)C)C(=O)[C@@]1(C)CO1)[C@@H](C)O` [Epoxomicin], the IC50 came to 8 ± 1 nM in [3]; 9.8 ± 1.7 nM in series [4] (mean ± SD, 3–6 independent experiments, serum-free (AlbuMAX II)); 5.2 nM in [5] (mature gametocytes, 48 h incubation, Giemsa smear counting); 3 ± 0.5 nM with HepG2 cells (HepG2, 48 h exposure, resazurin, mean ± SD, 3–6 independent experiments); 0.42 ± 0.11 nM in series [7] (ATP bioluminescence, 48 h, 3D7HT-GFP, mean ± SD, 3–6 independent experiments, read-out: IC50 Activity against mature gametocytes IV–V); 0.42 nM in series [7] (mature gametocytes, 48 h drug exposure (Table 1), read-out: IC50 gametocytes ATP method).

As to `CCCCN(CCCC)CCC(O)c1cc2c(Cl)cc(Cl)cc2c2cc(C(F)(F)F)ccc12` (stereo not drawn) [Halofantrine], the figures for the IC50 in series [3] (setting [9]), in series [4] (Plasmodium falciparum) and in series [7] (setting [11]) were 1.1 ± 0.5 nM, 1.2 ± 0.5 nM and 6700 ± 420 nM, respectively. Moreover, the IC50 at 48 h in series [6] (HepG2 cells) is > 50000 nM.

As for `CCN(CC)Cc1ccc(Nc2ccnc3cc(Cl)ccc23)cc1O` [Isoquine], the results for the IC50 in series [3] (setting [9]), in [4] (Plasmodium falciparum) and in series [7] (setting [11]) were 9 ± 1.6 nM, 4.4 ± 3.2 nM and 28500 ± 2120 nM, respectively. For the same compound, inhibition in [6] (HepG2 cells) was half-maximal at 17100 ± 6300 nM (IC50 at 48 h).

With `CCCCN(CCCC)CC(O)c1cc(Cl)cc2c1-c1ccc(Cl)cc1/C2=C/c1ccc(Cl)cc1` (stereo not drawn) [Lumefantrine], the IC50 in series [3] (setting [9]) was 3.2 ± 0.14 nM; in [4] (Plasmodium falciparum) it was 1.65 ± 0.07 nM; in series [7] (setting [11]) it was > 50000 nM. In addition, the IC50 at 48 h in series [6] (HepG2 cells) is > 50000 nM.

As to `OC(c1cc(C(F)(F)F)nc2c(C(F)(F)F)cccc12)C1CCCCN1` (stereo not drawn) [Mefloquine], the IC50 in [3] (setting [9]) stood at 26 ± 17 nM; in series [4] (Plasmodium falciparum), 28 ± 1.4 nM; in series [7] (setting [11]) it was 4900 nM; in series [7] (read-out: IC50 Activity against mature gametocytes IV–V, ATP bioluminescence, 48 h, 3D7HT-GFP, mean ± SD, 3–6 independent experiments) it was 4700 ± 2100 nM. The same compound had an IC50 at 48 h in [6] (HepG2 cells) of 11000 ± 260 nM. The “selectivity ratio (IC50 in HepG2 cells / IC50 in P. falciparum gametocytes)” value with HepG2 cells (HepG2 versus mature gametocytes) was determined as 2.34.

In the case of `CN(C)c1ccc2nc3ccc(=[N+](C)C)cc-3sc2c1` [Methylene blue], the IC50 in [3] (setting [9]) worked out at 11 ± 8 nM; in series [4] (Plasmodium falciparum), 10 ± 1.8 nM; in series [5] (setting [10]), 760 nM; in series [7] (setting [11]), 490 ± 160 nM; in series [7] (setting [12]), 490 nM. The compound further registered an IC50 at 48 h in series [6] (HepG2 cells) of 6520 ± 1310 nM.

With `COc1cc(NC(C)CCCN)c2ncccc2c1` (stereo not drawn) [Primaquine], the IC50 in [3] (setting [9]) was > 10000 nM; in [4] (Plasmodium falciparum) it was > 10000 nM; in series [5] (setting [10]), 87900 nM; in series [7] (setting [11]), 20900 ± 4650 nM; in series [7] (setting [12]), 20900 nM. Further, the half-maximal inhibitory concentration (IC50) at 48 h in [6] was > 50000 nM.

Turning to `CCc1nc(N)nc(N)c1-c1ccc(Cl)cc1` [Pyrimethamine], the IC50 was 33700 ± 6720 nM in series [4] (Plasmodium falciparum) and > 50000 nM in [7] (setting [11]). In addition, the 50% inhibitory concentration (IC50) at 48 h in series [6] (HepG2 cells) was > 50000 nM. In addition, in series [7] (3D7HT-GFP line resistant to drugs acting on DHFR), the “effect on mature gametocytes (in words)” value was “did not have any effect”.

For the compound `COc1ccc2nc3cc(Cl)ccc3c(Nc3cc(CN4CCCC4)c(O)c(CN4CCCC4)c3)c2n1` [Pyronaridine], the results for the IC50 in [3] (setting [9]), in [4] (Plasmodium falciparum) and in [7] (setting [11]) were 4.5 ± 1.5 nM, 0.8 ± 0.1 nM and ~3250 nM, respectively. The compound also yielded an IC50 at 48 h in series [6] (HepG2 cells) of 5950 ± 920 nM.

Consider `C=C[C@H]1C[N@@]2CC[C@H]1C[C@H]2[C@H](O)c1ccnc2ccc(OC)cc12` [Quinine], for which the results for the IC50 in [3] (setting [9]) and in series [4] (Plasmodium falciparum) were 66 ± 18 nM and 106 ± 40 nM, respectively. In addition, the IC50 at 48 h in [6] (HepG2 cells) is > 50000 nM.

Turning to `C[C@@H]1CC[C@H]2[C@@H](C)C(=O)O[C@@H]3O[C@@]4(C)CC[C@@H]1[C@]32OO4` [artemisinin], the IC50 in the series on late gametocytes was 1000 nM.

The record behind these values is PMC3325938, “Activity of Clinically Relevant Antimalarial Drugs on Plasmodium falciparum Mature Gametocytes in an ATP Bioluminescence “Transmission Blocking” Assay” (PLoS ONE, 2012).
